The test system of one test is soluble JAM-A. Description: ELISA of JAM-A antigen in plasma, murine 4T1 breast cancer model. The format is in vivo, mouse. To be noted: 4T1 tumor-bearing BALB/c mice and control littermates; Tβ4 15 μg/kg or TGF-β1 5 μg/kg i.p., 21 days. As to the method:
All in vivo experiments were carried on female BALB/c mice aged 8 to 12 weeks purchased from Animal House of Institute of Biology, University of Bialystok (Bialystok, Poland). The mice were housed under standard conditions at the Animal House of the Medical University of Lodz (Lodz, Poland). All animal procedures and protocols were conducted in accordance with the Guide for the Care and Use of Laboratory Animals of the National Animal Care Committee and were approved by Local Ethical Committee for Animal Research in Lodz (license number 9/LB51/2017 from Jun. 2, 2017). All efforts were made to minimize animal suffering.
Murine 4T1 cells were purchased from the American Type Culture Collection (ATCC, Manassas, Va., USA). The cells were maintained in RPMI-1640 (ATCC) with 10/o fetal bovine serum (FBS) and cultured in tissue culture flasks to 80% confluence. […]
The unbound biotinylated antibody was washed away and HRP-conjugated streptavidin was added to the wells. […] Regarding the both protocols, the enzyme-substrate (HRP-TMB) reaction was terminated by the addition of a sulfuric acid solution and the color change was measured spectrophotometrically at a wavelenght of 450 nm using the Wallac 1420 VICTOR2 Multilabel Counter (PerkinElmer). The concentration of target antigen in the samples was determined by comparing the optical density of the samples to the standard curve.

Test [1] has as its system MCF-10A cells on HMEC-1 cells. Put plainly: Adhesion of non-tumorigenic MCF-10A cells to endothelial monolayer under static conditions. The format is cell-based, human. The note with it: P4D 500 μM; TNF/IFN-treated HMEC-1. As to the method: The peptides were synthesized and purified by LifeTein, LLC (Somerset, N.J., USA) with the purity of not less than 95% using PeptideSyn™ technology that incorporates solid phase fluorenylmethyloxycarbonyl (Fmoc) chemistry. The cells were treated with the peptide P4D for 0, 1, 5, or 24 hours at a concentration of 500 μM. The cells treated with the Scrambled peptide P4D (Scr; 500 μM; 0, 1, 5, or 24 hours incubation time) were used as a negative control. In order to provide the positive control of the junctions tightening for impedance-based measurements of endothelial permeability, the cells were incubated with the potent activator of TJ assembly, forskolin (FSK; BioShop, Burlington, ON, Canada), for 24 hours at a concentration of 10 μM.
Adhesion of human breast cancer (MCF-7, MDA-MB-231) or non-tumorigenic (MCF-10A) human breast cells to HMEC-1 cells was performed in 24-well plates. HMEC-1 cells were seeded to the bottom of the fibronectin-coated wells 2 days before the assay to form the monolayer and subjected to a suitable treatment. Breast cancer or non-tumorigenic cells were starved overnight and on the day of the assay were labeled with CellTracker Green CMFDA Dye for 30 minutes. […] The adherent cells were lysed by 2% SDS and the fluorescence was measured using the Wallac 1420 VICTOR2 Multilabel Counter (PerkinElmer) at 492 nm of excitation and 517 nm of emission wavelengths.

Non-standard residues stand in square brackets, D forms with d. Residues, ends and D or L forms follow the SMILES beside them.

For the compound “Thymosin β4 (SDKPDMAEIEKFDKSKLKKTETQEKNPLPSKETIEQEKQAGES; not fully specified; Thymosin beta-4; UniProt P62328 2-44, looked up) [Tβ4]”, in the test on soluble JAM-A, the “JAM-A level in plasma” value was “decrease JAM-A level in plasma”.

Consider `CC(C)[C@H](NC(=O)[C@H](CO)NC(=O)[C@H](N)CCCCN)C(=O)N[C@H](C(=O)N[C@H](CCCNC(=N)N)C(=O)N[C@@H](CCC(=O)O)C(=O)N[C@@H](CC(=O)O)C(=O)N[C@H](C(=O)NCC(=O)N[C@H](C(=O)N[C@@H](Cc1ccc(O)cc1)C(=O)N[C@H](C(=O)N[C@@H](CS)C(N)=O)[C@@H](C)O)[C@@H](C)O)[C@@H](C)O)[C@@H](C)O` [Peptide P4D, NH2-(dK)-SVT-(dR)-EDTGTYTC-CONH2] (H-[dK]SVT[dR]EDTGTYTC-NH2), for which, in test [1], the “adhesion of MCF-10A cells to cytokine-treated endothelium” value was “markedly inhibited”.

The values are drawn from patent publication US10537610B1, “Peptide for inhibition of cancer” (priority 2018, dated 2020).
